Results reported in PubChem BioAssay (NCI).
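Dose response: 5 concentrations. Exposure: 48 h. Format: 96-well plates. Endpoint: linear interpolation; highest concentration if not reached. Abbreviation: GI50, concentration required for 50% inhibition of growth. TGI: concentration producing complete growth inhibition.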

What was measured:
Experiment in all cases: inhibition of tumour cell growth, NCI panel, 48 h
[1] = tested on: MDA-MB-435
[2] = tested on: PC-3 prostate
[3] = tested on: NCI/ADR-RES ovarian
[4] = tested on: NCI-H522 lung
[5] = tested on: DU-145 prostate
[6] = tested on: SNB-75 CNS
[7] = tested on: COLO 205 colon
[8] = tested on: HT29 colon
[9] = tested on: 786-0 renal
[10] = tested on: SK-MEL-28 melanoma

Compound	GI50 [1] [µM]	TGI [1] [µM]	GI50 [2] [µM]	TGI [2] [µM]	GI50 [3] [µM]	TGI [3] [µM]	GI50 [4] [µM]	TGI [4] [µM]	GI50 [5] [µM]	TGI [5] [µM]	GI50 [6] [µM]	TGI [6] [µM]	GI50 [7] [µM]	TGI [7] [µM]	GI50 [8] [µM]	GI50 [9] [µM]	TGI [9] [µM]	GI50 [10] [µM]	TGI [10] [µM]	TGI [8] [µM]
CC(=O)/C=C/c1ccc(N(C)Cc2ccc(C(C)(C)C)cc2)cc1	114	322	97.2	465	114	271	128	310	147	472	145	345	95.1	275	58.4	155	338	134	279	–
CSc1ccc2c(c1)C(=O)c1c-2n(CCCN=[N+]=[N-])c(=O)c2cc([N+](=O)[O-])ccc12	14.1	> 100	5.58	> 100	3.15	> 100	6.01	> 100	1.73	> 100	7.42	> 79.7	> 23.7	> 100	4.3	1.65	14.6	51.4	> 100	> 100
COc1ccc2cc(C(=O)/C=C/c3ccccc3OC)ccc2c1	0.57	5.03	2.62	23.1	3.19	> 37.4	1.93	9.67	2.63	8.07	4.06	> 51.6	3.56	49.4	1.67	5.59	21.5	21.3	> 94.8	> 45.5
COc1ccc(-c2oncc2-c2cc(OC)c3c(c2)OCO3)cc1	0.275	1.27	2.99	> 66.1	1.63	24.4	1.44	5.77	3.93	> 100	1.43	5.12	2.8	10.4	1.69	7.67	> 100	3.21	> 100	13.7
Cc1ccc(S(=O)(=O)N2C/C(=C\c3cc(F)cc(F)c3)C(=O)/C(=C/c3cc(F)cc(F)c3)C2)cc1	0.236	0.653	0.22	0.612	0.447	12.7	0.26	0.721	0.787	2.39	1.91	5.99	0.653	2.33	0.215	0.492	1.66	0.388	1.32	0.544
Cc1cc(Cl)ccc1Nc1nc(C(F)(F)F)ccc1C(=O)N/N=C/c1c(Cl)cccc1Cl	0.357	> 100	0.268	–	0.445	> 100	0.306	–	0.548	> 100	1.34	> 100	0.358	1.24	0.443	0.292	1.08	0.806	> 100	> 100
COc1cccc(-c2cc(NCc3ccc4c(c3)OCO4)nc(N)n2)c1	0.0175	0.0521	0.0868	48.3	0.0458	0.494	0.0607	1.27	0.125	12.1	0.0368	14.4	0.0466	0.198	0.0423	0.0819	12.9	0.0724	19.7	6.84
N=c1c2c(=O)n3c(nc2nc2sc4ccc(Cl)cc4n12)-c1ccccc1Sc1ccccc1-3	2.67	13.1	2.6	> 100	2.05	7.5	1.76	11.4	4.31	19.7	2.45	9.66	2.24	5.24	3.8	2.55	6.84	3.91	16.4	18
CNC(=S)N/N=C(/C)CCC/C(C)=N/NC(=S)NC	–	> 100	–	> 100	–	> 100	–	> 100	–	> 100	–	> 100	–	> 100	–	–	> 100	–	> 100	> 100
CCOC(=O)c1c2c(n3cccc(F)c13)C(=O)c1ncccc1C2=O	0.541	10.7	0.449	7.63	0.436	6.82	0.394	3.77	0.0761	2.84	1.72	64.9	1.27	7.2	1.34	0.114	4.99	0.486	19.4	5.42
CCN1CCN(Cc2ccc3cc(C(=O)Nc4cc(NC(=O)c5ccc6c(c5)OCCO6)ccc4F)ccc3n2)CC1	0.0608	3.42	0.0593	11.6	0.369	9.55	0.0351	0.427	0.0371	1.18	0.0178	0.456	0.0553	1.51	0.0528	0.0604	13.1	0.118	6.75	11.9
Cc1ccc(C2CC(c3cccc(Nc4ccncc4)c3)=NN2c2ccc(Cl)cc2)cc1 (stereo unspecified)	1.6	2.97	1.59	3.08	1.87	3.88	1.78	3.67	1.8	3.21	1.36	2.87	1.73	3.6	1.86	1.71	3.16	1.83	3.32	3.9
O=C1[C@H](c2ccccc2)C2c3ccccc3CCN12 (stereo partly specified)	> 100	> 100	> 100	> 100	> 100	> 100	> 100	> 100	> 100	> 100	–	> 100	> 100	> 100	> 100	> 100	> 100	> 100	> 100	> 100
